In ChEMBL document CHEMBL1142775, “Functionalized head-to-head hairpin polyamides: synthesis, double-stranded DNA-binding activity and affinity” (Bioorg Med Chem Lett, 2005):

What follows are molecules tested against Nucleic Acid (assay: Dissociation constant of conjugate DNA complexes in 0.05 HEPES buffer of pH 7.3, at room temperature).
Type: nucleic-acid assay

Compound | Kd
CCCCC(=O)NCCCN(CC(=O)NCCCC(=O)Nc1cc(C(=O)Nc2cc(C(=O)Nc3cc(C(=O)NCCCC(=O)Nc4cc(C(=O)Nc5cc(C(=O)Nc6cc(C(=O)NCCCN(C)C)n(C)c6)n(C)c5)n(C)c4)n(C)c3)n(C)c2)n(C)c1)CC(=O)NCCCC(=O)Nc1cc(C(=O)Nc2cc(C(=O)Nc3cc(C(=O)NCCCC(=O)Nc4cc(C(=O)Nc5cc(C(=O)Nc6cc(C(=O)NCCCN(C)C)n(C)c6)n(C)c5)n(C)c4)n(C)c3)n(C)c2)n(C)c1 | 4.8 nM
CN(C)CCCNC(=O)c1cc(NC(=O)c2cc(NC(=O)c3cc(NC(=O)CCCNC(=O)c4cc(NC(=O)c5cc(NC(=O)c6cc(NC(=O)CCCNP(=O)(CCCCN7C(=O)c8ccccc8C7=O)NCCCC(=O)Nc7cc(C(=O)Nc8cc(C(=O)Nc9cc(C(=O)NCCCC(=O)Nc%10cc(C(=O)Nc%11cc(C(=O)Nc%12cc(C(=O)NCCCN(C)C)n(C)c%12)n(C)c%11)n(C)c%10)n(C)c9)n(C)c8)n(C)c7)cn6C)cn5C)cn4C)cn3C)cn2C)cn1C | 34 nM
CCCCC(=O)N(CC(=O)NCCCC(=O)Nc1cc(C(=O)Nc2cc(C(=O)Nc3cc(C(=O)NCCCC(=O)Nc4cc(C(=O)Nc5cc(C(=O)Nc6cc(C(=O)NCCCN(C)C)n(C)c6)n(C)c5)n(C)c4)n(C)c3)n(C)c2)n(C)c1)CC(=O)NCCCC(=O)Nc1cc(C(=O)Nc2cc(C(=O)Nc3cc(C(=O)NCCCC(=O)Nc4cc(C(=O)Nc5cc(C(=O)Nc6cc(C(=O)NCCCN(C)C)n(C)c6)n(C)c5)n(C)c4)n(C)c3)n(C)c2)n(C)c1 | 4.3 nM
CCCCC(=O)NCCCCCCOP(=O)(NCCCC(=O)Nc1cc(C(=O)Nc2cc(C(=O)Nc3cc(C(=O)NCCCC(=O)Nc4cc(C(=O)Nc5cc(C(=O)Nc6cc(C(=O)NCCCN(C)C)n(C)c6)n(C)c5)n(C)c4)n(C)c3)n(C)c2)n(C)c1)NCCCC(=O)Nc1cc(C(=O)Nc2cc(C(=O)Nc3cc(C(=O)NCCCC(=O)Nc4cc(C(=O)Nc5cc(C(=O)Nc6cc(C(=O)NCCCN(C)C)n(C)c6)n(C)c5)n(C)c4)n(C)c3)n(C)c2)n(C)c1 | 18 nM
